One data set addresses FGFR4 kinase (Homo sapiens (Human), UniProt P22455). Description: Enzymologic experiment of FGFR4 (TR-FRET). In kind it is biochemical. The conditions noted are these: TR-FRET kinase activity. The procedure: 1. Enzymologic Experiment of FGFR4
In this experiment, the inhibitory effect of the compounds on FGFR4 kinase activity was tested by a fluorescence resonance energy transfer (TR-FRET) method, and the half maximal inhibitory concentration (IC50) of the compounds on the FGFR4 kinase activity was determined.
2) 1˜5 μL of diluted solution in gradient of the compound were added.
4) The mixture was incubated for 0.5-3 hours at room temperature.
5) 10 μL of EDTA and a test solution comprising labeled antibody were added, and the plate was incubated for 1 hour at room temperature.
6) The fluorescence signal values of each plate were determined by a microplate reader at 665 nm.
7) The inhibition rates were calculated according to the fluorescence signal values.

The target in the next data set is FGFR1 kinase (Homo sapiens (Human), UniProt P11362). Description: Enzymologic experiment of FGFR1 (TR-FRET). As to conditions: TR-FRET kinase activity. It counts as biochemical. The method in brief: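 Inhibition of FGFR1 (0.1–5 nM) was measured by TR-FRET with 5–50 nM peptide substrate and 10–200 μM ATP over 0.5–3 h at room temperature. The reaction was stopped with EDTA plus labeled antibody for 1 h, read at 665 nm, and IC50 was fitted from inhibition rates.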

In the next data set the test system is Hep 3B cells. Briefly: Inhibition of Hep 3B cell proliferation (CellTiter-Glo). It counts as cell-based. As to conditions: Homo sapiens, Hep3B, 72 hours. In a few lines:
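Hep 3B cells seeded at 1-5×10^4 cells/ml and incubated 16-24 h, then exposed to serially diluted compound for 72 h at 37° C, 5% CO2. Viability read by CellTiter-Glo chemiluminescence; IC50 curve-fitted from inhibition rates.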
For orientation: ATP-based viability assays read luminescence as a measure of living cells.

In a further data set the test system is HuH-7 cells. Description: Inhibition of HuH-7 cell proliferation (CellTiter-Glo). It counts as cell-based. As to conditions: Homo sapiens, 72 hours. In a few lines: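 HuH-7 cells, pre-incubated 16–24 h (37 °C, 5% CO2), then exposed to serially diluted compound for 72 h. Viability by CellTiter-Glo luminescence; inhibition rates from signal, IC50 by curve fitting.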

The test system of the next data set is SK-HEP-1 cells. Description: Inhibition of SK-HEP-1 cell proliferation (CellTiter-Glo). It counts as cell-based. The conditions noted are these: Homo sapiens, SK-HEP1, 72 hours. The method in brief:
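SK-HEP-1 cells were seeded, grown 16–24 h, then exposed to serially diluted compound for 72 h at 37 °C, 5% CO2. Viability was read by CellTiter-Glo luminescence, and IC50 was fitted from inhibition rates.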

Data set [1] is described as follows: Pharmacokinetic (PK) analysis in rats. It counts as in vivo, Sprague Dawley (SD) rats. As to conditions: SD rats, single intragastric administration, 5 mg/kg, plasma; for AUC(0-t) / AUC(0-inf) / half-life / MRT / Cmax: Sprague-Dawley, rat, po; for AUC(0-t): read-out: Area Under Curve AUC0-t; for AUC(0-inf): read-out: Area Under Curve AUC0-∞; for half-life: read-out: Half-Time t1/2 (converted); for MRT: read-out: Mean Residence Time MRT; for Cmax: read-out: Plasma Concentration Cmax.

Where only a bound is given, the exact number is not on record here.

FGFR4 kinase, sequence (P22455 22-802): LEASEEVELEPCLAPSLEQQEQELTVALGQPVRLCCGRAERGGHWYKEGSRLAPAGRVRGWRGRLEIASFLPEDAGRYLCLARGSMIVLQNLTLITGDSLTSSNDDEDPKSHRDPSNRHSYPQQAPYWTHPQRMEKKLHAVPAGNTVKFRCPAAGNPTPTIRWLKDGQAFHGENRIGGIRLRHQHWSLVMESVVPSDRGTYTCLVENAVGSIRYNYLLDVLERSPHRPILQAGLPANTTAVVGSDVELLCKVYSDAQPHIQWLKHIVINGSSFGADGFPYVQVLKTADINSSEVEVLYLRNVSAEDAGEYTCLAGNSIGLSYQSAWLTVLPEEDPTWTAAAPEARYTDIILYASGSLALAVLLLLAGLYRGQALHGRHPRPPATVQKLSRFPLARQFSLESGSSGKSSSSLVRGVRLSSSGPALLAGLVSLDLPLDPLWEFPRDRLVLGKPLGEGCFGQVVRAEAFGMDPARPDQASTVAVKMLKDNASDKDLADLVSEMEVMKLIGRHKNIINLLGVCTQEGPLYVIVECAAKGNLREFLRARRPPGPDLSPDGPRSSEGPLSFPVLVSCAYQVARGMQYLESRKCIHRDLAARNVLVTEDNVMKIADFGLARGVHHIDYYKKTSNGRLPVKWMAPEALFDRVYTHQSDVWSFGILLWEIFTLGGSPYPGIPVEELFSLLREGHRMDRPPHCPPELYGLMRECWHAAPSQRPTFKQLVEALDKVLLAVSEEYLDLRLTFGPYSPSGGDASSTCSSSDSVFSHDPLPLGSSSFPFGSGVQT
FGFR1 kinase, sequence (P11362 22-822): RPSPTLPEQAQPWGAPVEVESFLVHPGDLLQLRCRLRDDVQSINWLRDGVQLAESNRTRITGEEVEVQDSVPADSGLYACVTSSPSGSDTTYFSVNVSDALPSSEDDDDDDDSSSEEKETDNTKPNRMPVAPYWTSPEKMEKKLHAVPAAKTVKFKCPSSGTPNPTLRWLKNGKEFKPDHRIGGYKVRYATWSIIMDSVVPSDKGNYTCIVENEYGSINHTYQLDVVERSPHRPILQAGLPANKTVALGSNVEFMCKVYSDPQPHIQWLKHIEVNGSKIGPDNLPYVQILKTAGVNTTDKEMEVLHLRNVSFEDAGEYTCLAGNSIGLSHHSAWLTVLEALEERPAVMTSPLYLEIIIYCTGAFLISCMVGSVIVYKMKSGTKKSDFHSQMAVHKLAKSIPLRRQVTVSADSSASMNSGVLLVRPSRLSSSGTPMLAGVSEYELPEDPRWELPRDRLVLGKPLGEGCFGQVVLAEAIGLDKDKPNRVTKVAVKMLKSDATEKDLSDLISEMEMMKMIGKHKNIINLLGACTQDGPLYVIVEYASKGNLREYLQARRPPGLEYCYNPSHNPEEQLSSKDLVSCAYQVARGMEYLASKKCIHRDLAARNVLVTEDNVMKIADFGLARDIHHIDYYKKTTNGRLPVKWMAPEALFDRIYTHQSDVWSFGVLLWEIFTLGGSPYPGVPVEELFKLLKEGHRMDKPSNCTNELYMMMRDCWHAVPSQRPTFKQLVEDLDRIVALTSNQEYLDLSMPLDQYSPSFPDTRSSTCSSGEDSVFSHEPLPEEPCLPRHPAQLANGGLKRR

Consider `CO[C@H]1CCN(Cc2cc3c(nc2C=O)N(C(=O)Nc2cc(N[C@@H]4COC[C@H]4OC)c(C#N)cn2)CCC3)C1=O` [Example 86], for which, on FGFR4 kinase, the IC50 (as a rule, the concentration that gives 50% inhibition) was 1.34 nM. On FGFR1 kinase, this compound yielded an IC50 of more than 10000 nM. In the data set on Hep 3B cells, this compound yielded an IC50 of 3 nM. Moreover, the IC50 with HuH-7 cells was determined as 13.1 nM. Also, the half-maximal inhibitory concentration (IC50) in the data set on SK-HEP-1 cells is more than 10000 nM. In addition, in data set [1], the Peak Time tmax was found to be 2 h, the AUC(0-t) is 6830 ng·h/mL, the AUC(0-inf) is 6900 ng·h/mL and the half-life is 1 h. In data set [1], the MRT – broadly, the average time that molecules of a dose stay in the body – came to 2.7 h and the Cmax is 2760 ng/mL.
Turning to `COCCNc1cc(NC(=O)N2CCCc3cc(CN(C)C(=O)[C@H]4CCCN4C)c(C=O)nc32)ncc1C#N` [Example 9, (R)—N-(5-Cyano-4-((2-methoxyethyl)amino)pyridin-2-yl)-6-((N,1-dimethylpyrrolidin-2-carboxamido)methyl)-7-formyl-3,4-dihydro-1,8-naphthyridin-1(2H)-carboxamide], the midpoint of inhibition at FGFR4 kinase, the IC50, lay at 0.74 nM. This compound also returned an IC50 against FGFR1 kinase of more than 10000 nM. In the data set on Hep 3B cells, this compound gave an IC50 of 8.2 nM. This compound also displayed an IC50 with HuH-7 cells of 31 nM. In addition, in the data set with SK-HEP-1 cells, the IC50 is more than 10000 nM. For the same compound, in data set [1], the Peak Time tmax amounted to 2 h, the AUC(0-t) is 4400 ng·h/mL, the AUC(0-inf) is 4800 ng·h/mL and the half-life is 1.3 h. In data set [1], the MRT was found to be 3 h and the Cmax was 1700 ng/mL.

The record behind these values is patent US11608332B2, “FGFR4 inhibitor and preparation method and use thereof” (Jiangsu Hansoh Pharmaceutical Group Co., Ltd., priority 2016, dated 2023).
